Measurements published in ChEMBL document CHEMBL1201862, “PubChem BioAssay data set” (2004).
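Tested at 5 concentrations; 48 h exposure; 96-well plates; endpoints linearly interpolated, else capped at highest concentration. The concentration for 50% growth inhibition is given as GI50.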 The source made the active and inactive calls. No stated cut-off is given here; in the data, active = GI50 up to about 1.1 µM and inactive = higher.

Assays:
Assay in all cases: NCI anticancer screen, dose series, 48 h
[1] = system: KM12
[2] = system: 786-0
[3] = system: CCRF-CEM
[4] = system: IGROV-1
[5] = system: NCI-H460
[6] = system: ACHN
[7] = system: HCT-116
[8] = system: HT-29
[9] = system: SF-295
[10] = system: SK-MEL-28
[11] = system: RXF 393
[12] = system: HOP-92
[13] = system: UO-31
[14] = system: SW-620
[15] = system: HCT-15
[16] = system: CAKI-1

Measured: GI50

CCCCCCCCCCCCCCCCCCOCC1(COP(=O)([O-])OCC[N+](C)(C)C)CCCO1 (stereo not given)
active: [11] 0.393 µM
inactive: [1] 1.39 µM | [2] 3.73 µM | [3] 2.89 µM | [4] 2.49 µM | [5] 1.57 µM | [6] 6.37 µM | [7] 10.1 µM | [8] 4.41 µM | [9] 2.34 µM | [10] 18.2 µM | [12] 3.27 µM | [13] 10.2 µM

NC(=O)COC(=O)c1c(Cl)nc2sccn12
> 40.3 µM: [15]
inactive: [1] > 100 µM | [2] 19.1 µM | [14] > 35.3 µM | [3] > 31.6 µM | [4] > 100 µM | [5] > 61.2 µM | [6] > 100 µM | [7] > 31.6 µM | [8] > 100 µM | [9] > 100 µM | [10] > 100 µM | [12] > 100 µM | [13] > 100 µM | [16] > 100 µM

CN1C[C@@H]2CC(=O)CC[C@@H]2C[C@H]1C#N
inactive: [1] > 100 µM | [2] > 100 µM | [14] > 100 µM | [3] > 100 µM | [4] > 100 µM | [5] > 100 µM | [6] > 100 µM | [7] > 100 µM | [8] > 100 µM | [9] > 100 µM | [12] > 100 µM | [13] > 100 µM | [16] > 100 µM
> 100 µM: [15]

Cc1cc2c(=O)cc(-c3ccc(C(=O)O)cc3)oc2c(C(=O)O)c1C
> 100 µM: [15]
inactive: [1] > 100 µM | [2] > 100 µM | [14] > 100 µM | [3] > 100 µM | [4] > 100 µM | [5] > 100 µM | [6] > 100 µM | [7] > 100 µM | [8] > 100 µM | [9] > 100 µM | [10] > 100 µM | [12] > 100 µM | [13] > 100 µM | [16] > 100 µM

CCC1OCCN1C(C)C (stereo not given)
inactive: [1] > 100 µM | [2] > 100 µM | [14] > 100 µM | [3] > 100 µM | [4] > 100 µM | [5] 63.1 µM | [6] > 100 µM | [7] 89.9 µM | [9] > 100 µM | [10] 32.8 µM | [11] > 100 µM | [13] 96.6 µM
81.1 µM: [15]

COc1ccc(Br)c(N/N=C2\CCCNC2=O)c1
inactive: [1] > 100 µM | [2] > 100 µM | [14] 71.1 µM | [3] > 100 µM | [4] 96.4 µM | [5] > 100 µM | [6] 40.4 µM | [7] > 100 µM | [8] > 100 µM | [9] > 100 µM | [10] > 100 µM | [12] 48.9 µM | [13] 32.1 µM | [16] 36.3 µM
> 100 µM: [15]

CCOC(=O)C1=C(NC(C)(C)C)OCC1=O
inactive: [1] > 100 µM | [2] > 100 µM | [14] > 100 µM | [4] > 100 µM | [5] > 100 µM | [6] > 100 µM | [7] > 100 µM | [8] > 100 µM | [9] > 100 µM | [10] > 100 µM | [12] > 100 µM | [13] > 100 µM | [16] > 100 µM
> 100 µM: [15]

C=C1C2CCCC1C1(S(C)(=O)=O)CCCCC21O (stereo not given)
active: [12] < 0.01 µM
> 100 µM: [15]
inactive: [1] > 100 µM | [2] > 100 µM | [14] > 100 µM | [4] > 100 µM | [5] > 100 µM | [6] > 100 µM | [7] > 100 µM | [8] > 100 µM | [9] > 100 µM | [10] > 100 µM | [13] > 100 µM | [16] > 100 µM

COc1ccc(OC)c2c(C(=O)O)c(C(C)c3ccccc3)ccc12 (stereo not given)
inactive: [1] > 100 µM | [2] > 100 µM | [14] > 100 µM | [3] > 100 µM | [4] > 100 µM | [5] > 100 µM | [6] > 100 µM | [7] > 100 µM | [8] > 100 µM | [9] > 100 µM | [10] > 100 µM | [11] > 100 µM | [13] > 100 µM | [16] > 100 µM
> 100 µM: [15]

CCN(CC)CCNc1ccc2nc(C)n3c4ccc(O)cc4c(=O)c1c23
0.64 µM: [15]
inactive: [1] 3.02 µM | [4] 1.38 µM | [10] 2.77 µM | [13] 1.94 µM | [16] 1.24 µM
active: [2] 0.381 µM | [14] 0.596 µM | [5] 0.215 µM | [6] 0.231 µM | [7] 0.357 µM | [8] 0.246 µM | [9] 0.462 µM

Cc1ccc(C(=O)NC2CCCCC2)cc1/N=N/N(C)C
inactive: [1] > 100 µM | [2] > 100 µM | [14] > 100 µM | [4] > 100 µM | [5] > 100 µM | [6] > 100 µM | [7] > 100 µM | [8] > 100 µM | [9] > 100 µM | [10] > 100 µM | [12] > 100 µM | [13] > 100 µM | [16] > 100 µM
> 100 µM: [15]

O=C(O)/C(Cl)=C(\Cl)C(=O)Nc1ccc(Cl)c(Cl)c1Cl
19.4 µM: [15]
inactive: [1] 19.4 µM | [2] 18.2 µM | [14] 20.5 µM | [3] 37.2 µM | [4] 20.7 µM | [5] 21.8 µM | [6] 18.1 µM | [7] 11.8 µM | [8] 20.3 µM | [9] 18.5 µM | [10] 27.9 µM | [12] 17.2 µM | [13] 16.3 µM | [16] 18.1 µM

CC(C)(C)C1=CC(=NNC(=S)NCc2ccccc2)C=C(C(C)(C)C)C1=O
inactive: [2] 55.6 µM | [14] > 100 µM | [3] 52.1 µM | [4] > 100 µM | [5] 47.6 µM | [6] 67.1 µM | [7] 60.5 µM | [8] 73.1 µM | [9] 86.3 µM | [10] > 100 µM | [11] 78.9 µM | [13] 52 µM
> 100 µM: [15]

O=c1[nH]ccc(CNC23CC4CC(CC(C4)C2)C3)c1O
41.8 µM: [15]
inactive: [1] > 100 µM | [2] > 100 µM | [14] > 100 µM | [3] 41.5 µM | [4] > 100 µM | [5] 79.3 µM | [6] 93.5 µM | [7] > 100 µM | [8] > 100 µM | [9] 78.2 µM | [11] 48.4 µM | [13] 88.3 µM | [16] 59.7 µM

COc1cc2c(c(OC)c1OC)-c1ccc(SC)c(=O)cc1[C@@H](NC(=O)c1ccc(Cl)cc1)CC2
< 0.01 µM: [15]
active: [2] < 0.01 µM | [14] < 0.01 µM | [3] < 0.01 µM | [4] < 0.01 µM | [5] < 0.01 µM | [6] < 0.01 µM | [7] < 0.01 µM | [8] < 0.01 µM | [9] < 0.01 µM | [11] < 0.01 µM | [13] 0.0196 µM
inactive: [10] 13.9 µM
